Compound: Nc1ncnc2c1ncn2[C@@H]1O[C@H](COP(=O)(O)OP(=O)(O)OP(=O)(O)O)[C@@H](O)[C@H]1O [adenosine triphosphate]
Assay: pEC50 of ATP-induced change in protein thermal stability (2D-TPP)
Method in brief: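 Each of three independent experiments used Jurkat crude lysate given five concentrations including vehicle (10 min, room temperature), followed by 3 min at one of 12 temperatures from 42 to 63.9 °C and NP40 with benzonase (60 min, 4 °C). TMT LC-MS/MS quantified soluble protein after ultracentrifugation, expressed as fold changes against vehicle at each temperature with median normalisation. For pEC50, dose-response curves were fitted per replicate over adjacent temperature pairs, and hits were called through permutation-based false discovery rate control.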
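Note: lysate dosed with Na-ATP at 0 0.005 0.05 0.5 and 2 mM.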

UniProt P20226, sequence (P20226 whole entry): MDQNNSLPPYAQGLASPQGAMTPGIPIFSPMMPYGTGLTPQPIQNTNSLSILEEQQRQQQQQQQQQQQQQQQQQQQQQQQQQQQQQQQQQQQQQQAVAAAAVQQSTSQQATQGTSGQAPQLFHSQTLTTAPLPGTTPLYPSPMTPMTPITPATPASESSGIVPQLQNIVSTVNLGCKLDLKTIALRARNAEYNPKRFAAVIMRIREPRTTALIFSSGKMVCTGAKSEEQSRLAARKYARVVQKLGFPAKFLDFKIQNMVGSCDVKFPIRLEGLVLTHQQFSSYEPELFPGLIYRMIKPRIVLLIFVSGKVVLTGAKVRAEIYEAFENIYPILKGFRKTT
UniProt Q86UE8, sequence (Q86UE8 whole entry, looked up): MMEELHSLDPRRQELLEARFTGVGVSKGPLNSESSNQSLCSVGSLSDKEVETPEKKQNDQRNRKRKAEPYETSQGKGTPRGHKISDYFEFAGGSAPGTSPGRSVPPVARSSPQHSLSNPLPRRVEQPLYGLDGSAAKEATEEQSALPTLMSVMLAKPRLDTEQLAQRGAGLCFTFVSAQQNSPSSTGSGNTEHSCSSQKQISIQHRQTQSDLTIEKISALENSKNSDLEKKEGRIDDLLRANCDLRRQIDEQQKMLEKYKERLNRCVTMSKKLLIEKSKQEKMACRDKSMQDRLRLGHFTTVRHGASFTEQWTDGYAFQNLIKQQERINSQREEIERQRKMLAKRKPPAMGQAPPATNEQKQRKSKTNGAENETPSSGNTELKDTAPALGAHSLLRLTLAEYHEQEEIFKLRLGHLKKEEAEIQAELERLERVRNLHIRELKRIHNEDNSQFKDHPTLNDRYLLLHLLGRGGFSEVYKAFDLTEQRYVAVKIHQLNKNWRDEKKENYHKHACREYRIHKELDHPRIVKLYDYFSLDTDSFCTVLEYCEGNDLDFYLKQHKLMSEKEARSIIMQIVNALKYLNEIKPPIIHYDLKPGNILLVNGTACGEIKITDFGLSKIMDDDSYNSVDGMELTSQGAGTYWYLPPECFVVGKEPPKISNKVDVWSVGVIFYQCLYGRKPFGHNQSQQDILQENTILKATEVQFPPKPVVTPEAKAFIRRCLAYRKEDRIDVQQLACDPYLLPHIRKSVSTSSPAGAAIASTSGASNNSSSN
UniProt O14773, sequence (O14773 whole entry): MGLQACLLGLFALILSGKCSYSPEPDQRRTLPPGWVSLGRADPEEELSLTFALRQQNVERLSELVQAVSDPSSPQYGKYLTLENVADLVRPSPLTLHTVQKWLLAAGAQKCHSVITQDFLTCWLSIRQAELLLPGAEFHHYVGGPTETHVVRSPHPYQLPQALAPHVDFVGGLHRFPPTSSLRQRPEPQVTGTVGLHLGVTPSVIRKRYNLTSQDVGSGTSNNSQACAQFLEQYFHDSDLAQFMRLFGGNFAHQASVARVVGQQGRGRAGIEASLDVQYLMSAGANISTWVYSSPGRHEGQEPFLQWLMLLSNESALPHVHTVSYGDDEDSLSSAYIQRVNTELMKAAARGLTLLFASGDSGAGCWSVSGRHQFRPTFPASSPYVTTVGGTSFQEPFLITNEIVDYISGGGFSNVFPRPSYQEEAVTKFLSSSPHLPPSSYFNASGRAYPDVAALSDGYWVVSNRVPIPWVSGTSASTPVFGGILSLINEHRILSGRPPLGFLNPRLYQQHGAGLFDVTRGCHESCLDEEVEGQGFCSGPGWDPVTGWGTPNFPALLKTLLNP
UniProt Q9UH65, sequence (Q9UH65 whole entry): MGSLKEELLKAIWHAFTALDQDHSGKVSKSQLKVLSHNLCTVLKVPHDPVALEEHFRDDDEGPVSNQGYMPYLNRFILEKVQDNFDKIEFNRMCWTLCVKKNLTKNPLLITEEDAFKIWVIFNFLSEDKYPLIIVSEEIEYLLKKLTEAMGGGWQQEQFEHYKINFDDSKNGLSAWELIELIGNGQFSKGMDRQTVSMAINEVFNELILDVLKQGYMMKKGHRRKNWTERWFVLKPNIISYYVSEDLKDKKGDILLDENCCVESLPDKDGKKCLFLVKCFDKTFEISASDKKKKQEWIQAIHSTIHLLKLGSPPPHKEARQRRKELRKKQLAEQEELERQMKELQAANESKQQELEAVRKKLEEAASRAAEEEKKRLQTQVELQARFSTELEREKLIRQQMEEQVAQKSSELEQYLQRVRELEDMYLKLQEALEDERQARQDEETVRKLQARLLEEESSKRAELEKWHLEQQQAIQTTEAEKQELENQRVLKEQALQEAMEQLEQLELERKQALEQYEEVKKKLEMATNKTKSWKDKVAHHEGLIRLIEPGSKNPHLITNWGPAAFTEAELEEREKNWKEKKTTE
UniProt P09661, sequence (P09661 whole entry): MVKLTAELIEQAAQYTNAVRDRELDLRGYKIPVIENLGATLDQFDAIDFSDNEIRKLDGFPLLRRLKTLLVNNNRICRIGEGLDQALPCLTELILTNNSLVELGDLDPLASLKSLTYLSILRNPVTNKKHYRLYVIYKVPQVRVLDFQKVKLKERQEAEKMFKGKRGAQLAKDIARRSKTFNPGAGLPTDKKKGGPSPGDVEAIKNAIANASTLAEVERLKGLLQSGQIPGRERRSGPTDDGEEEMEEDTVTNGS
UniProt O14656, sequence (O14656 whole entry): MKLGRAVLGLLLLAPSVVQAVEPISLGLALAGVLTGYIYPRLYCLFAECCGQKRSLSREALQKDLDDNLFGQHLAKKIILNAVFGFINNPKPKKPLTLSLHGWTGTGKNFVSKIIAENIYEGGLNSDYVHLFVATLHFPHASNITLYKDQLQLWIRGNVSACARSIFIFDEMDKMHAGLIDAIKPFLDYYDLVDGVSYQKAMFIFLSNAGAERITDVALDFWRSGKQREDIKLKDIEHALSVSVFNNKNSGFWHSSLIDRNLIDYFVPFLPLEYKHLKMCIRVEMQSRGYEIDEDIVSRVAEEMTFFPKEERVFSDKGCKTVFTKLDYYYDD
UniProt Q8WVK2, sequence (Q8WVK2 whole entry): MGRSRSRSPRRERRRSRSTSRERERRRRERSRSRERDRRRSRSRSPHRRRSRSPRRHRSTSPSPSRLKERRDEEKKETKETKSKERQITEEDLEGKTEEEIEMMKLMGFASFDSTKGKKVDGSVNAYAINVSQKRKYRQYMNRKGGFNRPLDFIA
UniProt Q9UQ90, sequence (Q9UQ90 whole entry): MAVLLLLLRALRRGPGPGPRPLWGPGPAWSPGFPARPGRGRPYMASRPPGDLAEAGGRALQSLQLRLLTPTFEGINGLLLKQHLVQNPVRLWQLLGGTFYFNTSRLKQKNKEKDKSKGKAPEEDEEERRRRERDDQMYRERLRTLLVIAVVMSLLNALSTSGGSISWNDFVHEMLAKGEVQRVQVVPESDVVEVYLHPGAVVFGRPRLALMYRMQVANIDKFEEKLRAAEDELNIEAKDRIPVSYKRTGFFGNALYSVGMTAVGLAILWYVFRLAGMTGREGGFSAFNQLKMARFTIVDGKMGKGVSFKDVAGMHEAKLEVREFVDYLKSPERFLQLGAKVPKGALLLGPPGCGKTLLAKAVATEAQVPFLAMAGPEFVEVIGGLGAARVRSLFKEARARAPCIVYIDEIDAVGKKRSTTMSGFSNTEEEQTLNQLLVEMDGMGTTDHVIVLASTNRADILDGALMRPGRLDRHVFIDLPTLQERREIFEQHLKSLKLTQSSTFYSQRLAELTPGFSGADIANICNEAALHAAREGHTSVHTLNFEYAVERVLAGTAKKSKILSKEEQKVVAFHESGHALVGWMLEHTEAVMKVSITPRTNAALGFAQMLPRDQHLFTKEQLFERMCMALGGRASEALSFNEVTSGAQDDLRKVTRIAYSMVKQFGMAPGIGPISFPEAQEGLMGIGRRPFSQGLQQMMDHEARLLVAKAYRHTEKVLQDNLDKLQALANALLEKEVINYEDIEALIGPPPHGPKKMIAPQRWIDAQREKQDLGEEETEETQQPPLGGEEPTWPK
UniProt O60749, sequence (O60749 whole entry): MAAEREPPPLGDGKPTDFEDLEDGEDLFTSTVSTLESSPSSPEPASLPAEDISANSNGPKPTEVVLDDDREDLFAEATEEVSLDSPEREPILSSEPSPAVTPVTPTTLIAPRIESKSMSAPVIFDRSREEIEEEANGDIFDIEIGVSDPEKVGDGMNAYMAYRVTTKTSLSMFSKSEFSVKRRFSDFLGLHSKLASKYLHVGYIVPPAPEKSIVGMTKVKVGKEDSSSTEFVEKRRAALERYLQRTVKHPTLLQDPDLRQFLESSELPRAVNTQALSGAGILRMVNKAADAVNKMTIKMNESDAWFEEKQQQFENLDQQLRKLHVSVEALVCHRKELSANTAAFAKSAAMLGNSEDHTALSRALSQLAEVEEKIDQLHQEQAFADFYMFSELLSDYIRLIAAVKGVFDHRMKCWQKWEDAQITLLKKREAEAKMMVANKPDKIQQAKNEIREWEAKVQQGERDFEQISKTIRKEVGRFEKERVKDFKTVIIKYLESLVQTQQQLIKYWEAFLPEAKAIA
UniProt Q15833, sequence (Q15833 whole entry): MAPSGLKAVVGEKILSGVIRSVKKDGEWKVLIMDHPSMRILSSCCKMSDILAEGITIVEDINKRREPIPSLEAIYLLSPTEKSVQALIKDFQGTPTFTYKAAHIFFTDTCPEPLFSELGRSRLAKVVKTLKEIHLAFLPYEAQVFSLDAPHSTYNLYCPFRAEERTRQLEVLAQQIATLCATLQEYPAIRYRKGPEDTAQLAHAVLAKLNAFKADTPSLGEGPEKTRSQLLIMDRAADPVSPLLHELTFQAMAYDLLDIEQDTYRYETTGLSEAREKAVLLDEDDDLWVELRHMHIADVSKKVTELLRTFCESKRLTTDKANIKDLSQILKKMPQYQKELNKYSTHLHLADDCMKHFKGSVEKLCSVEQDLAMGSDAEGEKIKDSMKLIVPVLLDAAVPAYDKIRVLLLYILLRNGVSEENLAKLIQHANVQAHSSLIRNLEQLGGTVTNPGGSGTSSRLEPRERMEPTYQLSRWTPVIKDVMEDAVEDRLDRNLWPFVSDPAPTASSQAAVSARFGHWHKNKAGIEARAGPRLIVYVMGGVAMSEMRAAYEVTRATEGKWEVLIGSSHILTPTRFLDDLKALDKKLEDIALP

pEC50	Target
3.49	SMG6 (effect direction: stabilized) (UniProt Q86US8)
3.22	SND1 (effect direction: stabilized) (UniProt Q7KZF4)
3.64	SNRNP27 (effect direction: stabilized) (UniProt Q8WVK2)
< 2.7	SNRPA1 (effect direction: stabilized) (UniProt P09661)
< 2.7	SNRPB (effect direction: destabilized) (UniProt P14678)
< 2.7	SNX1 (effect direction: stabilized) (UniProt Q13596)
< 2.7	SNX2 (effect direction: stabilized) (UniProt O60749)
< 2.7	SNX5 (effect direction: stabilized) (UniProt Q9Y5X3)
< 2.7	SNX6 (effect direction: stabilized) (UniProt Q9UNH7)
3.34	SPAST (effect direction: stabilized) (UniProt Q9UBP0)
2.96	SPATA5 (effect direction: stabilized) (UniProt Q8NB90)
4.48	SPG7 (effect direction: stabilized) (UniProt Q9UQ90)
3.88	SPN (effect direction: destabilized) (UniProt P16150)
< 2.7	SPTBN1 (effect direction: stabilized) (UniProt Q01082)
3.37	SRC (effect direction: stabilized) (UniProt P12931)
2.86	SRFBP1 (effect direction: destabilized) (UniProt Q8NEF9)
3.64	SRPK1 (effect direction: stabilized) (UniProt Q96SB4)
3.22	SRPRB (effect direction: stabilized) (UniProt Q9Y5M8)
< 2.7	SRRM2 (effect direction: stabilized) (UniProt Q9UQ35)
< 2.7	SSB (effect direction: stabilized) (UniProt P05455)

pEC50	Target
3.1	ST13 (effect direction: stabilized) (UniProt P50502)
4.09	STAG2 (effect direction: stabilized) (UniProt Q8N3U4)
< 2.7	STXBP2 (effect direction: stabilized) (UniProt Q15833)
3.37	SUB1 (effect direction: destabilized) (UniProt P53999)
3.12	SUPV3L1 (effect direction: stabilized) (UniProt Q8IYB8)
< 2.7	SWAP70 (effect direction: stabilized) (UniProt Q9UH65)
3.21	TARDBP (effect direction: stabilized) (UniProt Q13148)
< 2.7	TBCB (effect direction: stabilized) (UniProt Q99426)
3.12	TBP (effect direction: destabilized) (UniProt P20226)
4.76	TCP1 (effect direction: stabilized) (UniProt P17987)
< 2.7	THOC1 (effect direction: stabilized) (UniProt Q96FV9)
3.1	THUMPD3 (effect direction: stabilized) (UniProt Q9BV44)
3.07	TLK2 (effect direction: stabilized) (UniProt Q86UE8)
< 2.7	TLN1 (effect direction: stabilized) (UniProt Q9Y490)
3.04	TMEM33 (effect direction: stabilized) (UniProt P57088)
3.26	TMEM173 (effect direction: stabilized) (UniProt Q86WV6)
4.09	TOR1A (effect direction: stabilized) (UniProt O14656)
3.26	TPP1 (effect direction: stabilized) (UniProt O14773)
3.33	TRAP1 (effect direction: stabilized) (UniProt Q12931)
